Experimental data: US8871280B1, “Compositions and methods for treating fungal activity in plants or soil” (The United States of America, as represented by the …, priority 2011, dated 2014)

Columns and labels:
[1] = test system: Rhizoctonia solani; test: Fungicidal vs fungistatic potential (regrowth of mycelial plugs on fresh PDA, 7 days); assay type: cell-based, Rhizoctonia solani AG-4, isolate Rs 23A; conditions: fumigation
Description: The fungicidal and fungistatic potential of the PEs were determined by the method described by Garber and Houstan (Garber R. H., and B. R. Houston, Phytopathology, 49: 449-450 (1959)). In brief, three 5 mm diameter plugs were taken from the peripheral mycelial growth from each plate and placed in a fresh PDA plate. Following incubation at room temperature for 7 days, observations were recorded for new mycelial growth (fungistatic) or no mycelial growth (fungicidal). As control, peripheral mycelial plugs from soybean oil amended PDA plates were checked for fresh mycelial growth in fresh PDA plates.

[2] = test system: cucumber seeds; test: Greenhouse assay of seed germination and phytotoxicity, soil treated with plant extract alone; conditions: for Avg. seed germination (+ PE only) / % Seed germination (+ PE only): cucumber, soil amended with 0.3% PE, no pathogen; for Avg. seed germination (+ PE only): 12 seeds sown per pot
Description: Soil treatment: For each treatment, 300 g of dry greenhouse soli (Pro-mix, Premier Horticulture LTD, Red Hill, Pa.) was thoroughly mixed with Rhizoctonia inoculum and incubated for 15 days as described above. […] The infested soil treated with only the carrier solution served as an untreated control. Following the treatment, the soil was thoroughly stirred to mix the contents and incubated in a double polythene bag closed tightly in the dark at room temperature for four days for fumigation to occur. Following the incubation, the bag was opened to allow as much PE to dissipate as possible. This was done by sprinkling the surface soil with sterile water every other day, and stirring the soil once every day for seven days. For assay of effect on seed germination and phytotoxicity of the plant extracts, soil was treated with plant extract formulations alone.
Greenhouse studies: Treated soil from each treatment was distributed to 4-inch plastic pots into which 12 seeds of cucumbers (95-100% germination) were sown and lightly watered to keep soil moist. The treatments were color coded and pots were randomized across treatment. All plants were kept in a greenhouse between 20° C. (night) to 26° C. (day) with 14 h of light. There were three pots per treatment in each experiment, and the experiment was repeated three times. As positive control, a broad spectrum popular soil fungicide Banrot® 40 WP (The Scotts Company, Ohio) was used following manufacturer's recommendation to control the disease. Total number of seedlings without any sign of damping off in each pot was recorded and percentage of disease suppression were calculated four weeks after sowing cucumber seeds.

[3] = test system: Rhizoctonia solani; test: Poison food technique (contact action), mycelial growth inhibition in PDA; assay type: cell-based, Rhizoctonia solani AG-4, isolate Rs 23A; conditions: for PoisonB1 % inhibition: poison bed experiment 1; for PoisonB2 % inhibition: poison bed experiment 2
Description: (§1) Fungal isolate and preparation of inoculum: Rhizoctonia solani AG-4, isolate Rs 23A is a highly virulent pathogenic isolate which infects many vegetables, ornamentals and turfgrasses (Lewis, J. A., and G. C. Papavizas, Soil Biology and Biochemistry, 9:195-201 (1987)). The fungus was grown in potato dextrose agar (PDA) plates and fungal plugs from the freshly growing mycelium were mixed with moist sterilized cracked wheat in a 2 L flask for 15 days in dark at 22° C. (Lakshman, D. K., et al., Proceedings of the National Academy of Science, USA, 95: 6425-6429 (1998)). The infested wheat was air dried in a sterile hood for 3 days, blended in a homogenizer and sieved through a mesh and stored at 2° C. before soil inoculation. A dose response of the inocula was carried out by thoroughly mixing using 0.25, 0.5, 0.75, 1.0, 1.25 and 1.50 g inoculums per Kg dry weight potting soil plus sterile water to maintain 25-30% moisture and incubating at room temperature for two weeks before sowing cucumber (cv muncher) seeds with the infested soil. The percent germination and post-emergence damping off of cucumber seedlings were recorded. The lowest inoculums dose that induced 100% postemergence damping off was estimated to be 1 to 1.25 g/Kg soil for inocula prepared over the span of the experiments. For soil fumigation with plant extracts (PEs), each time the minimum inoculum dose giving rise to 100% damping off was used.
In vitro bioassays: Two in vitro bioassay methods were used to investigate the mycelial growth inhibitory potentials of PEs. In the poison food technique, test chemical/plant extract was mixed at concentrations of 15, 30, 45, 60, 75, and 150 μl per 20 ml autoclaved PDA at 50° C., poured on three sterile disposable plastic plates (100×15 mm, Fisherbrand) at 20 ml/plate and cooled to room temperature to solidify (Dhingra, O.D., and J. B. Sinclair, 1995, Basic Plant Pathology Methods, 2nd Edition, Lewis Publishers, Boca Raton and London). […] Each plate was seeded in the center with a 5 mm diameter agar disk of the freshly grown Rhizoctonia pathogen, mycelial side facing the medium, and sealed with stretched Parafilm® M (Fisher Scientific). The plates were incubated in the dark at room temperature and when the pathogen reached to the edge of the plates in the control treatment (soybean oil), radial measurement of fungal growth in plates treated with PEs were recorded by taking three measurements from each plate. The experiment was repeated one more time. The percent mycelial growth inhibition (MGI) due to PE was calculated using the following formula: […] where dc=Avg. radial growth in mm of pathogen in control plate; dt=avg. radial growth in mm of pathogen in treated plate.

[4] = test system: Rhizoctonia solani; test: Filter disk fumigation method, mycelial growth inhibition on PDA; assay type: cell-based, Rhizoctonia solani AG-4, isolate Rs 23A; conditions: for Fumig1 % inhibition: fumigation experiment 1; for Fumig2 % inhibition: fumigation experiment 2
Description: as §1
In the second protocol, the chemical was kept not in direct contact with the fungus and we hypothesized that the plant extract will most likely influence the growth of the pathogen by fumigation action. In this approach, three sterile 15 mm filter paper (Whatman International Ltd, Maidstone, UK) disks were placed on the edge of each of three plates on the PDA. Each disk was impregnated in the center with various amounts (5-50 ul/disk) of the test solution/suspension. For negative control, only soybean oil was placed in the filter disk. […] The average radial growth was calculated and the experiment was repeated one more time. Percent growth inhibition was calculated as reported for poison bed assay.

[5] = test system: Rhizoctonia solani; test: Greenhouse suppression of damping off of cucumber seedlings in R. solani infested soil amended with plant extract; assay type: in vivo, Rhizoctonia solani AG-4, isolate Rs 23A; conditions: cucumber damping off, soil amendment at 0.3% (v/w), four weeks after sowing

SMILES	Effect (fumigation) ([1]; amount oil 15 μL/20 mL plate)	Effect (fumigation) ([1]; amount oil 30 μL/20 mL plate)	Effect (fumigation) ([1]; amount oil 45 μL/20 mL plate)	Effect (fumigation) ([1]; amount oil 60 μL/20 mL plate)	Effect (fumigation) ([1]; amount oil 75 μL/20 mL plate)	Effect (fumigation) ([1]; amount oil 150 μL/20 mL plate)	Avg. seed germination (+ PE only) [2]	% Seed germination (+ PE only) [2] [%]	PoisonB1 % inhibition ([3]; amount oil 15 μL/20 mL plate) [%]	PoisonB2 % inhibition ([3]; amount oil 15 μL/20 mL plate) [%]	PoisonB1 % inhibition ([3]; amount oil 30 μL/20 mL plate) [%]	PoisonB2 % inhibition ([3]; amount oil 30 μL/20 mL plate) [%]	PoisonB1 % inhibition ([3]; amount oil 45 μL/20 mL plate) [%]	PoisonB2 % inhibition ([3]; amount oil 45 μL/20 mL plate) [%]	PoisonB1 % inhibition ([3]; amount oil 60 μL/20 mL plate) [%]	PoisonB2 % inhibition ([3]; amount oil 60 μL/20 mL plate) [%]	PoisonB1 % inhibition ([3]; amount oil 75 μL/20 mL plate) [%]	PoisonB2 % inhibition ([3]; amount oil 75 μL/20 mL plate) [%]	PoisonB1 % inhibition ([3]; amount oil 150 μL/20 mL plate) [%]	PoisonB2 % inhibition ([3]; amount oil 150 μL/20 mL plate) [%]	further results
Cc1ccc(C(C)C)cc1O [Carvacrol]	S	S	S	S	S	S	4.00	33.33	100	100	100	100	100	100	100	100	100	100	100	100	Phytotoxicity (cucumber seed germination and seedling growth), in words ([2]; greenhouse, soil amendment): slightly inhibited; Fumig1 % inhibition ([4]; amount oil 15 μL/20 mL plate): 88%; Fumig2 % inhibition ([4]; amount oil 15 μL/20 mL plate): 87%; Fumig1 % inhibition ([4]; amount oil 30 μL/20 mL plate): 94%; Fumig2 % inhibition ([4]; amount oil 30 μL/20 mL plate): 91%; Fumig1 % inhibition ([4]; amount oil 45 μL/20 mL plate): 100%; Fumig2 % inhibition ([4]; amount oil 45 μL/20 mL plate): 91%; Fumig1 % inhibition ([4]; amount oil 60 μL/20 mL plate): 100%; Fumig2 % inhibition ([4]; amount oil 60 μL/20 mL plate): 93%; Fumig1 % inhibition ([4]; amount oil 75 μL/20 mL plate): 99%; Fumig2 % inhibition ([4]; amount oil 75 μL/20 mL plate): 96%; Fumig1 % inhibition ([4]; amount oil 150 μL/20 mL plate): 100%; Fumig2 % inhibition ([4]; amount oil 150 μL/20 mL plate): 100%; % Disease suppression (+ PE + R. solani) [5]: 47.25%
CC(C)=CCC/C(C)=C/CO [Geraniol]	S	S	S	S	S	S	11.33	94.41	100	100	100	100	100	100	100	100	100	100	100	100	Fumig1 % inhibition ([4]; amount oil 15 μL/20 mL plate): 51%; Fumig2 % inhibition ([4]; amount oil 15 μL/20 mL plate): 15%; Fumig1 % inhibition ([4]; amount oil 30 μL/20 mL plate): 56%; Fumig2 % inhibition ([4]; amount oil 30 μL/20 mL plate): 34%; Fumig1 % inhibition ([4]; amount oil 45 μL/20 mL plate): 62%; Fumig2 % inhibition ([4]; amount oil 45 μL/20 mL plate): 31%; Fumig1 % inhibition ([4]; amount oil 60 μL/20 mL plate): 66%; Fumig2 % inhibition ([4]; amount oil 60 μL/20 mL plate): 54%; Fumig1 % inhibition ([4]; amount oil 75 μL/20 mL plate): 73%; Fumig2 % inhibition ([4]; amount oil 75 μL/20 mL plate): 67%; Fumig1 % inhibition ([4]; amount oil 150 μL/20 mL plate): 77%; Fumig2 % inhibition ([4]; amount oil 150 μL/20 mL plate): 61%; % Disease suppression (+ PE + R. solani) [5]: 77.75%
